Reference: BindingDB's records for doi:10.1016/s0960-894x(03)00408-6 (Millennium Pharmaceuticals, 2003)

Experiments:
Protein kinase C (PKC) = test: Inhibitory activity against protein kinase C.
[1] = biological target: cAMP-dependent protein kinase catalytic subunit alpha/beta/gamma (Homo sapiens, UniProt P17612+P22694+P22612); test: Inhibitory activity against protein kinase A.

Row | IC50 (Protein kinase C (PKC)) [µM] | IC50 [1] [µM] | Structure (SMILES)
1 | > 25 | > 25 | COc1ccc(C(=O)Nc2cc(Cl)cc3c4cc[nH]cc-4nc23)cc1 [N-(6-Chloro-9H-beta-carbolin-8-yl)-4-methoxy-benzamide]
2 | > 25 | > 25 | O=[N+]([O-])c1cc(Cl)cc2c1[nH]c1cnccc12 [6-Chloro-8-nitro-9H-beta-carboline]
3 | > 25 | > 25 | COc1cccc(C(=O)Nc2cc(Cl)cc3c4cc[nH]cc-4nc23)c1 [N-(6-Chloro-9H-beta-carbolin-8-yl)-3-methoxy-benzamide]
4 | > 25 | > 25 | COc1ccccc1C(=O)Nc1cc(Cl)cc2c3cc[nH]cc-3nc12 [N-(6-Chloro-9H-beta-carbolin-8-yl)-2-methoxy-benzamide]

Row | Structure (SMILES) | IC50 (Protein kinase C (PKC)) [µM] | IC50 [1] [µM]
5 | Clc1cc2c3cc[nH]cc-3nc2c(Cl)c1OCC1CC1 [6,8-Dichloro-7-cyclopropylmethoxy-9H-beta-carboline] | > 25 | > 25
